Values after ≈ are worked out from the molar mass of the structure shown. Like-named read-outs stand apart in the source and are kept apart here.
Assays:
[1] = comparison detergent, source not given; cited from earlier work
[2] = CMC by dye uptake (orange OT); format: physicochemical
Text: Triphenylacetic acid 4.0 has a novel amphiphilic geometry and is commercially available.
The addition of the t-butyl group accomplished the goal of increasing the hydrophobic surface area, as indicated by the diminished CMC's.
The CMC of a detergent can be determined experimentally by measuring the solubilization of a water-insoluble dye or fluorophore while varying the concentration of detergent. CMC may also be determined by measuring the diminution of the surface tension of an aqueous solution as a function of detergent concentration. (CMC's determined by either method correlate with each other.) The CMC is determined by extrapolating the plot of solubilization vs. concentration (or surface tension vs. concentration) in the two linear regions above and below the CMC. Where the two lines intersect is the CMC. In this Example, CMC's were determined by the method of Nugebauer, J. M. (1990), Methods in Enzymology, 182:239-253: […]

[3] = Aqueous solubility; format: physicochemical; conditions: water
[4] = biological target: T1, Bacteriorhodopsin (BR) (Halobacterium salinarum, UniProt P02945); conditions: reported detergents; cited from earlier work
T1 construct: We used BR solubilization from the PM to evaluate tripod detergents; endogenous in cells
T1 sequence (P02945 14-261 limits assumed): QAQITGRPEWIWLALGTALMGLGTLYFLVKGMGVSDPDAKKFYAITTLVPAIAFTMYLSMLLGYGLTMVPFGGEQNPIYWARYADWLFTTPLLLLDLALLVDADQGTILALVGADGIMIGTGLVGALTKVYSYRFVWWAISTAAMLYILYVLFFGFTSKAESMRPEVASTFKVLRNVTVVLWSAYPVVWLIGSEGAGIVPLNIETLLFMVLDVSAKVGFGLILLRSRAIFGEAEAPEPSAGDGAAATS

[5] = CMC values of conventional detergents quoted for comparison; format: physicochemical
[6] = biological target: T1, Bacteriorhodopsin (BR); assay: Solubilization of bacteriorhodopsin (BR) from purple membrane (PM)
Protocol: We used BR solubilization from the PM to evaluate tripod detergents synthesized using the modular synthetic approach described above. The retinal chromophore of BR allowed us to quantify solubilized material by UV. Solubilized BR is defined as the intact protein left in the supernatant after a sample is centrifuged for 30 minutes at 300,000 g. The percent BR solubilized is determined by dividing the absorbance of the supernatant by the absorbance of the solution before centrifugation.
Solubilization experiments were conducted by making a series of solutions with constant concentration of PM and varying the concentration of detergent. […] The absorbance at the λmax (between 540 nm and 570 nm) was then measured, and immediately afterward the samples were centrifuged for 30 minutes at 300,000 g. The supernatant was carefully removed so as not to disturb pelleted material. Absorbance measurements were made again, and the ratio of the supernatant absorbance to the absorbance before centrifugation provided the percent solubilization.

## CCCCCCCCCCCC[N+](C)(C)[O-] [DDAO, dodecylammonium-N-oxide]
[1]
  CMC: 10.4 mM

## O=C(O)C(c1ccccc1)(c1ccccc1)c1ccccc1 [Detergent 4.1]
[2]; orange OT uptake
  CMC: 130 mM
[3]; read-out: solubility
  solubility: 210 mM (≈ 60.6 mg/mL)

## C[N+](C)([O-])CCN(CC[N+](C)(C)[O-])C(=O)CC(c1ccccc1)(c1ccccc1)c1ccccc1 [Detergent 4.10]
[2]; dye uptake
  CMC: about 80 mM
[3]
  solubility in water (in words): very soluble in water
[3]; read-out: solubility in water
  solubility: > 2000 mM

## CC(C)(C)c1ccc(C(CC(=O)N(CC[N+](C)(C)[O-])CC[N+](C)(C)[O-])(c2ccccc2)c2ccccc2)cc1 [Detergent 4.20]
[2]; dye uptake
  CMC: about 12.5 mM

## CCCCCCCCO[C@@H]1O[C@H](CO)[C@@H](O)[C@H](O)[C@H]1O [OG]
[4]
  removal of BR from the purple membrane (in words): successfully remove BR from its native environment

## Br.CCCCCCCCCCCCN [dodecylammonium bromide]
[5]
  CMC ratio, dodecylammonium bromide vs N-oxide analog (LDAO): > 7 times larger
[1]
  CMC: 15 mM

## CCCCCCCCCO[C@@H]1O[C@H](CO)[C@@H](O)[C@H](O)[C@H]1O [nonyl glucoside (NG), nonyl glucoside]
[4]
  removal of BR from the purple membrane (in words): successfully remove BR from its native environment

## Triton X-100 [reference compound]
[6]
  BR solubilization (in words): effective at solubilizing BR
[6]; pH 5
  time to solubilize BR: 49 h
[6]; pH 6.9
  time to solubilize BR: 24 h
[4]
  removal of BR from the purple membrane (in words): successfully remove BR from its native environment

From US6172262A, “Amphiphilic agents for membrane protein solubilization” (priority 1999, dated 2001)
